Experimental data reported in patent publication US5266707A, “3,5-dihydroxyheptanoic acid derivatives” (Fujirebio Inc., priority 1991, dated 1993).
pIC50: −log10 of the molar value. Where two headings read alike, the source gives them in different places.

What was measured:
[1] = test system: automatic TBARS reproduction of the rat brain homogenate; assay: Measurement of Anti-oxidation Function (inhibition of automatic TBARS reproduction of rat brain homogenate); format: biochemical; settings: inhibition of TBARS in rat brain homogenate
[2] = target: T1, HMG-CoA Reductase (Rattus norvegicus, UniProt P51639); assay: Measurement of Inhibitory Activity on HMG-CoA Reductase (activity ratio of biosynthesis of cholesterol); format: biochemical
T1 construct: from tissue
T1 sequence (P51639 1-887): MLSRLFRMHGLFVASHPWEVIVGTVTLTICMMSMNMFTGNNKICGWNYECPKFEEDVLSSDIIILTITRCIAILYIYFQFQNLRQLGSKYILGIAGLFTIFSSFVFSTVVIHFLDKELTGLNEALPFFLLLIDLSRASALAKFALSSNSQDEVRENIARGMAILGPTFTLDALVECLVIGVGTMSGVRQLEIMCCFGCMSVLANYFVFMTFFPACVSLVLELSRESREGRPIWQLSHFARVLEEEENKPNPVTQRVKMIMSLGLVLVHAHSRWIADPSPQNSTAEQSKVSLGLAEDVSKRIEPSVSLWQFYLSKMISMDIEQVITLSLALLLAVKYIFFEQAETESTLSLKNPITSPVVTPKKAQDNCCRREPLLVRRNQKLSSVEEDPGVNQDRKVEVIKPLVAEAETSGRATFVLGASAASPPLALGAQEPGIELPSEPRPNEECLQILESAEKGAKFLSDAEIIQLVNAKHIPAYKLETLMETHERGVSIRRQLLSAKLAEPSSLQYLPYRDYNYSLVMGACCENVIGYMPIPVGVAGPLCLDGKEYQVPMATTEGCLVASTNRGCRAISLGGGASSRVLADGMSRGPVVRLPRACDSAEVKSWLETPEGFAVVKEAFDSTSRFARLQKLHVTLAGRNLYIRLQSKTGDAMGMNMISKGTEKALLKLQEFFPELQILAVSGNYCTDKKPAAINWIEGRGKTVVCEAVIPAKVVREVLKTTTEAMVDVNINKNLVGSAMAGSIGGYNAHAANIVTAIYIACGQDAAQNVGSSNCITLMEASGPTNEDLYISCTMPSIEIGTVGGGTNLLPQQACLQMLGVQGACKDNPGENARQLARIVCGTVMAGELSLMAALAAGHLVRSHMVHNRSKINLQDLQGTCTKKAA

[3] = test system: total serum cholesterol in model rats with Triton-induced hyperlipemia; assay: Measurement of Reduction in Cholesterol Value (total serum cholesterol, Triton-induced hyperlipemia model rats); format: in vivo, rat; settings: value of Compactin (ML-236B) as reference (100)
[4] = Relative value when the value of Compactin is 100

| Structure (SMILES) | pIC50 [1] | Activity ratio of Biosynthesis of Cholesterol, Reactive Inhibitory Potency [2, 4] | Reduction of Cholesterol Value [3] | Activity ratio of Biosynthesis of Cholesterol, Reactive Inhibitory Potency [2] |
| --- | --- | --- | --- | --- |
| Cc1c(CC[C@H]2C[C@H](O)CC(=O)O2)c2c(c(C)c1N1CCc3ccccc3C1)CC(C)(C)O2 (racemic) [Compound No. 24, trans-(±)-6-[2,3-dihydro-5-(1,2,3,4-tetrahydroisoquinolin-2-yl)-2,2,4,6-tetramethylbenzo[b]furan-7-yl]ethyl-4-hydroxytetrahydropyran-2-one] | 5.79 |  |  |  |
| Cc1c(CCC(O)CC(O)CC(=O)O)c2c(c(C)c1-n1cc3ccccc3c1)CC(C)(C)O2 (racemic) [Compound No. 94, sodium 7-[2,3-dihydro-5-isoindolyl-2,2,4,6-tetramethylbenzo[b]furan-7-yl]-3,5-dihydroxyheptanoate] |  | 1550 |  |  |
| CC[C@H](C)C(=O)O[C@H]1CCC=C2C=C[C@H](C)[C@H](CC[C@@H]3C[C@@H](O)CC(=O)O3)[C@H]21 [Compactin, reference compound] |  |  | 100 |  |
| Cc1c(CC[C@H]2C[C@H](O)CC(=O)O2)c2c(c(C)c1N1Cc3ccccc3C1)CC(C)(C)O2 (racemic) [Compound No. 13, trans-(±)-6-[2,3-dihydro-5-(isoindolin-2-yl)-2,2,4,6-tetramethylbenzo[b]furan-7-yl]ethyl-4-hydroxytetrahydropyran-2-one] | 5.84 | 250 | 180 |  |
| Cc1c(CC[C@@H]2C[C@@H](O)CC(=O)O2)c2c(c(C)c1-n1cc3ccccc3c1)CC(C)(C)O2 (relative stereo) [Compound No. 14, trans-(±)-6-[2,3-dihydro-5-isoindolyl-2,2,4,6-tetramethylbenzo[b]furan-7-yl]ethyl-4-hydroxytetrahydropyran-2-one] |  | 250 |  |  |
| Cc1c(N)c(C)c2c(c1CC[C@H]1C[C@H](O)CC(=O)O1)OC(C)(C)C2 (racemic) [Compound No. 10, trans-(±)-6-[5-amino-2,3-dihydro-2,2,4,6-tetramethylbenzo[b]furan-7-yl]ethyl-4-hydroxytetrahydropyran-2-one] | 5.56 |  |  |  |
| Cc1c(CCC(O)CC(O)CC(=O)O)c2c(c(C)c1N1Cc3ccccc3C1)CC(C)(C)O2 (stereo not shown) [Compound No. 12, 7-[2,3-dihydro-5-(isoindolin-2-yl)-2,2,4,6-tetramethylbenzo[b]furan-7-yl]3,5-dihydroxyheptoic acid] | 5.80 | 1500 | 330 |  |
| Cc1c2c(c(CC[C@H]3C[C@H](O)CC(=O)O3)c(C(C)C)c1NCc1ccccc1)OC(C)(C)C2 (racemic) [Compound No. 43, trans-(±)-6-[5-benzylamino-2,3-dihydro-2,2,4-trimethyl-6-(propan-2-yl)benzo[b]furan-7-yl]ethyl-4-hydroxytetrahydropyran-2-one] |  | 170 |  |  |
| CC1(C)Cc2cc(N3Cc4ccccc4C3)c(C(C)(C)C)c(CCC(O)CC(O)CC(=O)O)c2O1 (stereo not shown) [Compound No. 93, sodium 7-[6-(t-butyl)-2,3-dihydro-5-(isoindolin-2-yl)-2,2-dimethylbenzo[b]furan-7-yl]-3,5-dihydroxyheptanoate] | 5.70 |  |  |  |
| Cc1c(CC[C@H]2C[C@H](O)CC(=O)O2)c2c(c(C)c1N1CCCC1)CC(C)(C)O2 (racemic) [Compound No. 17, trans-(±)-6-[2,3-dihydro-2,2,4,6-tetramethyl-5-(pyrrolidin-1-yl)benzo[b]furan-7-yl]ethyl-4-hydroxytetrahydropyran-2-one] | 5.83 |  |  |  |
| CC(C)c1c(N2Cc3ccccc3C2)cc2c(c1CCC(O)CC(O)CC(=O)[O-])OC(C)(C)C2.[Na+] (stereo not shown) [Compound No. 76, sodium 7-[2,3-dihydro-5-(isoindolin-2-yl)-2,2-dimethyl-6-(propan-2-yl)benzo[b]furan-7-yl]-3,5-dihydroxyheptanoate] | 5.19 |  |  | 2730 |
| Cc1c(CCC(O)CC(O)CC(=O)[O-])c2c(c(C)c1N1Cc3ccccc3C1)CC(C)(C)O2.[Na+] (stereo not shown) [Compound No. 15, sodium 7-[2,3-dihydro-5-(isoindolin-2-yl)-2,2,4,6-tetramethylbenzo[b]furan-7-yl]-3,5-dihydroxyheptanoate] | 5.78 |  | 320 | 830 |
